According to a melting point compilation (Tetko et al.; mined from patent text by program, amines drawn as free bases though some values may be those of a salt):

SMILES	melting point
CC(C)(C)c1cc(I)c2c(c1)CNC1(O2)C2CC3CC(C2)CC1C3 (stereo not given)	162 to 164 °C
Cc1c(-c2ccc(O)cc2O)c(=O)oc2cc(F)ccc12	266 to 268 °C
CCOC(=O)C=CC(=O)N1CC1C#N (stereo not given)	54 to 56 °C
COC1=Nc2c(C)ccnc2N(C2CC2)c2ncccc21	191 to 192 °C
CC(=O)OC1COC(Br)C(OC(C)=O)C1OC(C)=O (stereo not given)	92 °C
Cc1ccc(CC(C)NCC(O)c2cc3ccccc3o2)cc1 (stereo not given)	88 to 100 °C
CCCCCCCCCCCCCCCCCC(=O)Nc1cccc(N)c1	98 to 102 °C
CC(=O)c1cccc(NC(=O)c2cc(C(N)=O)cc(C(=O)N(c3cccc(C(C)=O)c3)c3cccc(C(C)=O)c3)c2)c1	270 °C
COc1cc(OC)c(C(=O)O)c(C(F)(F)F)n1	194 to 198 °C
CC(C)c1cc2ncccc2cc1Oc1cnc(NC(CO)CO)nc1N	172 to 174 °C
Fc1ccc(-c2nc(C(F)(F)F)nc(Cl)c2-c2ccccc2)cc1	67 to 68 °C
C1=CC2=NCCC3CCOC23C=C1 (stereo not given)	170 to 171 °C
CCN1C(=O)C(C)(C(=O)O)Oc2ccccc21 (stereo not given)	164 to 168 °C
c1ccc(COc2ccc(OCCN3CCN(c4ccccc4)CC3)cc2)cc1	116 to 119 °C
COc1cc2c(cc1C(F)(F)F)N(C(=O)Nc1ccc(F)c(-c3cccnc3)c1)CC2	210 to 212 °C
O=Cc1cc(Br)ccc1Oc1ccc(Cl)c(Cl)c1	129 to 132 °C
COCCOC(=O)C1=C(O)c2ccccc2S(=O)(=O)N1	120 to 122 °C
Cc1cc2[nH]c3ccccc3n2n1	250 to 252 °C
O=C(O)c1cc(Br)cnc1Cl	174 to 177 °C
COC1(OCCCCl)C=CC(C(=O)O)=CC1 (stereo not given)	157 to 159 °C
CC(C)n1cnc2c(Nc3ccc([N+](=O)[O-])cc3)nc(Cl)nc21	> 260 °C
COC1Nc2c(O)cccc2C(=O)N2CCCC12 (stereo not given)	150 to 153 °C
CCCCCCOC(=O)C(=O)Nc1cc(C#N)cc(NC(=O)C(=O)OCCCCCC)c1Cl	82 to 84 °C

SMILES	melting point
Cc1cnc2c(C(=O)NC=NO)c(Cl)ccc2c1	235 to 238 °C
NC(=O)c1[nH]c2ccccc2c1-c1ccc(NC(=O)Nc2ccc(C(F)(F)F)c(Cl)c2)cc1	168 to 170 °C
Cc1nc(-c2ccc(SC(C)C)c([N+](=O)[O-])c2)sc1C(=O)O	233 to 235 °C
CCCCCCCCCCCCCCCCCCCCOC(=O)P(=O)(OC)OC	53 to 54 °C
CC(C)(C)C(COC(N)=O)(NC(=O)c1ccccc1)c1c[nH]c2ccc(Br)cc12 (stereo not given)	187 °C
COc1nccc2c1COC2=O	90 °C
CCC1C(C)=NN=C(c2ccc(OC)c(OC)c2)c2cc(Cl)ccc21 (stereo not given)	185 to 187 °C
C(#CCN(c1ccccc1)c1ccccc1)CN(c1ccccc1)c1ccccc1	84 to 86 °C
Cc1cc(N)c(C)nc1OC(F)F	38.4 to 39.4 °C
COc1cc(OC)nc(NC(=O)N=NS(=O)(=O)C2SCC(=O)N2C)n1 (stereo not given)	200 to 201 °C
COCCOCCOc1ccc(/C=C/C(=O)O)c(Oc2ncc(C(F)(F)F)cc2Cl)c1	134 °C
COC(=O)NCc1cccc(Br)c1	41 to 44 °C
CCCCCCN(CC(=O)O)CC(=O)O	130 to 131 °C
CC(C)(C)OC(=O)C(Cl)=CC1C(C(=O)O)C1(C)C (stereo not given)	65 °C
COc1c(C(=O)O)nnn1Cc1ccccc1Cl	130 to 135 °C
Cc1nc(NC(=O)CCc2ccccc2)sc1C(=O)NCc1ccccc1	63 to 65 °C
Brc1ccc2c(c1)C1(c3ccccc3-c3ccccc31)c1cc(Br)ccc1-2	340 to 341 °C
O=C(O)c1cc(OCc2ccccc2)c(OCc2ccccc2)cn1	204 °C
CCCc1c(OCCCSc2ccc(C(=O)CCC(=O)O)c(O)c2)ccc(C(C)=O)c1O	140 °C
Cc1ccc(S(C)(=O)=O)c(S(=O)(=O)NC(C)(C)C)c1	129 to 133 °C
Fc1ccccc1OCc1ccc2ccccc2n1	84 to 86 °C
CC(C)(C)[S@@](=O)NC1(c2ccc3c(C(F)(F)F)c(O[C@H]4CC[C@H](C(C)(C)C)CC4)ccc3c2)COC1	86.8 to 90 °C
CCCCN1CC[C@@H](CNC(=O)c2cc(Cl)c(N)c3c2OCCO3)[C@H](O)C1 (relative stereo)	122 °C

SMILES	melting point
CCCCc1c(/C=C/c2ccccc2OCC)nc2ccc(C(=O)O)cn2c1=O	265 to 268 °C
CN1CCCc2cccc(CS(=O)c3nc4ccccc4[nH]3)c21 (stereo not given)	112 to 113 °C
CCn1cc(-c2cccc(C(F)(F)F)c2)c(=O)n1-c1cccc(C(F)(F)F)c1	110 to 111 °C
CCCCCN(CCCCC)C(=O)[C@H]1Cc2c([nH]c3ccccc23)CN1C(=O)Nc1cccc(C)c1	154 to 155 °C
CCCCCCCCCCCCCCCCCCOc1ccc(C(=O)C(=O)N(CC(=O)OCC)CC(=O)OCC)cc1	63 to 64 °C
CS(=O)(=O)OCc1cc(I)cc(I)c1I	130 to 133 °C
CCCCCCCCCCCCCCCCCCOC[C@@H](O)COC(=O)CCCCl	48 °C
O=C1CCc2c1ccc(F)c2F	28 to 32 °C
CNC(=O)N1CC(Oc2cccc(C)c2)C1	138 to 142 °C
c1cncc(-c2nsnc2SCCCc2cccs2)c1	98 to 100 °C
O=c1oc2c(c(=O)n1C1CCCCC1)CCC2	72 to 74 °C
CC(C)CP(=O)(CCC(=O)O)CCC(=O)O	186 to 187 °C
Cc1cc(-c2[nH]c3ccc([N+](=O)[O-])cc3c2C)cc(C)c1O	229 to 231 °C
O=C1NC(Cc2cccc(OC(F)(F)C(F)F)c2)C(c2ccc(Oc3ccccc3)cn2)O1 (stereo not given)	87 to 88 °C
Cc1cc2c(c(C)c1NC(=O)CC(C)(C)C)C(c1ccc(C(C)C)cc1)CO2 (stereo not given)	130 to 131 °C
COc1cc(C)nn1-c1ccc(Br)cc1	67 to 68 °C
COc1cc(C(=O)Nc2cccc3c2CN(C)CC3)cc(OC)c1OC	177 to 178 °C
CC(CNC(=O)CN1CCCC1=O)N1CCN(C)CC1 (stereo not given)	84 to 85 °C
NCC(=O)SCC(Cc1ccccc1)C(=O)Nc1cccc(C(=O)O)c1 (stereo not given)	91 to 96 °C
CC12CCC(=O)C=C1CCC1C2CCC2(C)C(n3ccnc3)=CCC12 (stereo not given)	147 to 150 °C
CC(=O)N(CC=C=CC=c1c(C)c2c(n(C)c1=O)=NN(c1ccccc1)C2=O)c1ccccc1	> 300 °C

Next, values leading:

melting point	SMILES
164 to 166 °C	CC(=O)NCc1ccc(CN2CCN(c3ccncc3)CC2)cc1
218 °C	O=C(O)c1cc(-c2ccc(Cl)cc2)nn1Cc1ccc(Cl)cc1Cl
140 to 145 °C	COC(=O)c1ccc(CC(C)N(CC(=O)c2ccc(OCc3ccccc3)c(NC(N)=O)c2)Cc2ccccc2)cc1 (stereo not given)
160 to 161 °C	CS(=O)(=O)c1ccc(-c2cnn(Cc3cccnc3)c(=O)c2-c2ccc(F)cc2)cc1
> 300 °C	O=C(O)C(=O)CC(=O)c1cn(Cc2ccncc2)c2ccccc2c1=O
195 to 197 °C	Cc1nc(N2CCN(Cc3ccc(C(F)(F)F)cc3)C2=O)sc1C(=O)O
165 to 166 °C	Cn1c(-c2ccccc2)c(-c2ccc(C(=O)O)cc2)c2ccccc21
101 to 104 °C	COc1cc(N2CCN(C[C@@H](O)CO)CC2)ccc1Nc1ncc2ccc(-c3cc(Cl)ccc3OC)n2n1
323 °C	Cc1cc(-c2ccc(C(F)(F)F)cc2)nc(-n2cnc(-c3ccc(S(N)(=O)=O)cc3)c2)n1
64 to 65 °C	Cc1cc(C)c2c(c1O)C(=O)C1CCCCC21 (stereo not given)
240 to 244 °C	CC(=O)Nc1ccc(S(=O)(=O)c2cccc3cnccc23)cc1
97 to 98 °C	CC(=Cc1ccc(S)cc1)c1ccc2c(c1)C(C)(C)CCC2(C)C
183 to 187 °C	COc1ccc(-c2sc3c(c2CN(C)Cc2ccccc2)c(=O)c(C(C)O)cn3Cc2ccccc2F)cc1 (stereo not given)
257 to 258 °C	COc1ccc(Cn2c3ccc(Cl)cc3c3c(C(=O)Nc4c(Cl)cncc4Cl)ccc(OC)c32)cc1
175 to 177 °C	COc1c(C2CCN(CCCCNC(=O)c3ccc(-c4ccc(Cl)s4)nc3)CC2)ccc2c1CCCC2
132 to 135 °C	CS(=O)(=O)N(Cc1cccnc1)c1ccc(F)cc1F
80 °C	Nc1ccc(NC(=O)C=C2CC(C(=O)OCc3ccccc3)Nc3cc(Cl)cc(Cl)c32)cc1 (racemic)

melting point	SMILES
63 to 64 °C	COC(=O)c1ccc(CN2CCN(CC(C)O)CC2)cc1 (stereo not given)
172 to 173 °C	O=C(NC1CCCCC1)c1ccc2nonc2c1
68 to 69 °C	FC(F)(F)Oc1ccc(C2NCCc3c2[nH]c2ccccc32)cc1 (stereo not given)
94 to 95 °C	O=c1cc(-c2ccccc2)oc2cc(OCCCCCN3CCC(O)CC3)ccc12
91 to 93 °C	COc1ccc(C(=O)Cc2cc(OC)cc(Br)c2OC)cc1
215 to 217 °C	COC(=O)c1cc(-c2ccc(OC)cc2)nn(Cc2ccc([N+](=O)[O-])cc2)c1=O
97 to 99 °C	COCN(c1cccc2cc(-c3nc[nH]n3)n(COC)c12)S(=O)(=O)c1cccs1
98 °C	CC(C)(C)OC(=O)C(Nc1ccccc1)c1ccc(Cl)cc1 (racemic)
93 to 95 °C	COC(=O)c1ccc(CN(C2CCCCC2C)S(=O)(=O)c2ccc(Cl)cc2)cc1 (stereo not given)
128 to 130 °C	Cc1cc(C2(C(F)(F)F)CC(c3ccc(F)cc3)=NO2)ccc1NC(=O)c1cccc(I)c1C(=O)NC(C)C (stereo not given)
102 to 103 °C	COc1ccc(C(=O)Cc2ccncc2)cc1OC1CCCC1
90 °C	CC#CCOc1ccc(S(=O)(=O)C(C(=O)O)C2CCN(C(=O)c3ccccc3)CC2)cc1 (stereo not given)
182 to 183 °C	CC(=O)NC[C@H]1CN(c2ccc(C3CCN(C(=O)CO)CC3)c(F)c2)C(=O)O1
238 to 241 °C	CC1(C)CCCC(C)(C)N1Cc1ccc2cc(NC(=O)c3ccc(-c4ccc(F)cc4)cc3)ccc2c1
177 to 179 °C	N#Cc1c[nH]cc1-c1ccc(Cl)cc1C(=O)c1ccccc1F
144 to 146 °C	CCCCc1nn(-c2cc(NC(=O)CC)ccc2Cl)c(=O)n1Cc1ccc(-c2cc(CC)ccc2S(=O)(=O)NC(=O)c2ccccc2Cl)cc1
